US6696447B2, “Hydroxyphenyl-piperazinyl-methyl-benzamide derivatives for the treatment of pain” (AstraZeneca AB, priority 2000, dated 2004)

Key:
Format in all cases: biochemical
[1] = biological target: T1, human δ receptor (HDELTA) (Homo sapiens, UniProt P41143); assay: GTP[γ]35S binding functional assay, HEK-293S membranes expressing cloned human opioid receptor (HDELTA)
T1 construct: expressed in transfected cells; host or cells: human 293S (HEK-293S) cells, geneticin-selected
Protocol: A. Human 293S cells expressing cloned human μ, δ, and κ receptors and neomycin resistance were grown in suspension at 37° C. and 5% CO2 in shaker flasks containing calcium-free DMEM10% FBS, 5% BCS, 0.1% Pluronic F-68, and 600 μg/ml geneticin.
Cells were pelleted and resuspended in lysis buffer (50 mM Tris, pH 7.0, 2.5 mM EDTA, with PMSF added just prior to use to 0.1 mM from a 0.1 M stock in ethanol), incubated on ice for 15 min, then homogenized with a polytron for 30 sec. The suspension was spun at 1000 g (max) for 10 min at 4° C. The supernatant was saved on ice and the pellets resuspended and spun as before. The supernatants from both spins were combined and spun at 46,000 g(max) for 30 min. The pellets were resuspended in cold Tris buffer (50 mM Tris/Ci, pH 7.0) and spun again. The final pellets were resuspended in membrane buffer (50 mM Tris, 0.32 M sucrose, pH 7.0). Aliquots (1 ml) in polypropylene tubes were frozen in dry ice/ethanol and stored at −70° C. until use. The protein concentrations were determined by a modified Lowry assay with sodium dodecyl sulfate.
(§1) The agonist activity of the compounds is measured by determining the degree to which the compounds receptor complex activates the binding of GTP to G-proteins to which the receptors are coupled. In the GTP binding assay, GTP[γ]^35S is combined with test compounds and membranes from HEK-293S cells expressing the cloned human opioid receptors or from homogenised rat and mouse brain. Agonists stimulate GTP[γ]^35 S binding in these membranes. The EC50 and Emax values of compounds are determined from dose-response curves. Right shifts of the dose response curve by the delta antagonist naltrindole are performed to verify that agonist activity is mediated through delta receptors.

[2] = biological target: T2, delta receptors, rat brain membranes (Rattus norvegicus, UniProt P33533); assay: GTP[γ]35S binding functional assay, homogenised rat brain
T2 construct: from tissue; host or cells: rat brain homogenate
Protocol: (§2) B. Mouse and rat brains were weighed and rinsed in ice-cold PBS (containing 2.5 mM EDTA, pH 7.4). The brains were homogenized with a polytron for 15 sec (mouse) or 30 sec (rat) in ice-cold lysis buffer (50 mM Tris, pH 7.0, 2.5 mM EDTA, with phenylmethylsulfonyl fluoride added just prior use to […] from a 0.5M stock in DMSO:ethanol).
as §1

[3] = biological target: T3, delta receptors, mouse brain membranes (Mus musculus, UniProt P32300); assay: GTP[γ]35S binding functional assay, homogenised mouse brain
T3 construct: from tissue; host or cells: mouse brain homogenate
Protocol: as §2, §1

T3 sequence (P32300 whole entry): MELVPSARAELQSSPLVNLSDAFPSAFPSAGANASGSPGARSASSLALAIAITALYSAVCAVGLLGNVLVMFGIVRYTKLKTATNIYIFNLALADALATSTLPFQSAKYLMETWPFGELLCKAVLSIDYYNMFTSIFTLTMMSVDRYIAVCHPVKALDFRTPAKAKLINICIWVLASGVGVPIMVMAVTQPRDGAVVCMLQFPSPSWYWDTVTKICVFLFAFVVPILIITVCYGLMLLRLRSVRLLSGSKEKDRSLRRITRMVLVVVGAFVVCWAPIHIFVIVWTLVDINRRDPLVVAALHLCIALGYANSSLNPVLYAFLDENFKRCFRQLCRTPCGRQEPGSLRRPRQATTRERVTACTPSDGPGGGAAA
T2 sequence (P33533 whole entry): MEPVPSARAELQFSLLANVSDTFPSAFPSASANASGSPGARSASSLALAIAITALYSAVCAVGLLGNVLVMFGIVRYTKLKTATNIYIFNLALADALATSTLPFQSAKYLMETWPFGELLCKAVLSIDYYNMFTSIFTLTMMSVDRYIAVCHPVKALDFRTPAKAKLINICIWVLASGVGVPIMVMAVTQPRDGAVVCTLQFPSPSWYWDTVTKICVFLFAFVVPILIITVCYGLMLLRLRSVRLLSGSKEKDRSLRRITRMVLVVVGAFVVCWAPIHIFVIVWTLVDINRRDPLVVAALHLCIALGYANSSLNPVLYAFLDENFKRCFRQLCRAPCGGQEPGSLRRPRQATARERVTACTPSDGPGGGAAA
T1 sequence (P41143 whole entry): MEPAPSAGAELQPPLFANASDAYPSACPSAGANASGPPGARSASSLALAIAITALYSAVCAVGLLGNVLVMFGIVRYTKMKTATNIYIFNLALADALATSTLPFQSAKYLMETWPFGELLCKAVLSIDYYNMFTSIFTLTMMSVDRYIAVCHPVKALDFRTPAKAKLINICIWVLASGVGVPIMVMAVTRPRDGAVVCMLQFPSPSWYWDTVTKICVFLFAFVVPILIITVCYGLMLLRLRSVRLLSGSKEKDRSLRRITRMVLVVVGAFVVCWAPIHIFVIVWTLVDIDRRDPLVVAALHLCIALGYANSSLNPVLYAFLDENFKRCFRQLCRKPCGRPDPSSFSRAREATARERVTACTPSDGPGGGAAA

| Structure (SMILES) | Emax [1] | Emax [2] | Emax [3] |
| --- | --- | --- | --- |
| CCN(CC)C(=O)c1ccc(C(c2cccc(O)c2)N2CCN(Cc3ccsc3)CC2)cc1 (stereo not drawn) [Example 3, N,N-diethyl-4-{(3-hydroxyphenyl)[4-(3-thienylmethyl)-1-piperazinyl]methyl}benzamide] | 114% | 128% | 122% |
| CCN(CC)C(=O)c1ccc(C(c2cccc(O)c2)N2CCN(Cc3ccco3)CC2)cc1 (stereo not drawn) [Example 1, N,N-diethyl-4-[[4-(2-furylmethyl)-1-piperazinyl](3-hydroxyphenyl)methyl]benzamide] | 94.8% | 130% | 113% |
| CCN(CC)C(=O)c1ccc(C(c2cccc(O)c2)N2CCN(Cc3cccs3)CC2)cc1 (stereo not drawn) [Example 2, N,N-diethyl-4-{(3-hydroxyphenyl)[4-(2-thienylmethyl)-1-piperazinyl]methyl}benzamide] | 105% | 120% | 118% |
